# Key:
# [1] = tested on: HEK 293T cells; assay: Cytotoxicity in HEK 293T cells; assay type: cell-based, human; conditions: up to concentrations of 0.5 mM
# [2] = tested on: carnitine biosynthesis in HEK 293T cells; assay: LC-MS detection of carnitine levels in HEK 293T cells; assay type: cell-based, human; conditions: for Carnitine levels: control 100% (SEM ± 13%)
# [3] = tested on: histone demethylases (KDMs); assay: Selectivity panel of human 2OG oxygenases: histone demethylases; assay type: biochemical; conditions: at 100 μM
# [4] = tested on: BBOX; conditions: read-out: IC50 BBOX in vitro; cited from earlier work
# [5] = biological target: T1, BBOX (Homo sapiens, UniProt O75936); assay: Binding assay by quenching of the intrinsic fluorescence of BBOX
# T1 sequence (O75936 1-387): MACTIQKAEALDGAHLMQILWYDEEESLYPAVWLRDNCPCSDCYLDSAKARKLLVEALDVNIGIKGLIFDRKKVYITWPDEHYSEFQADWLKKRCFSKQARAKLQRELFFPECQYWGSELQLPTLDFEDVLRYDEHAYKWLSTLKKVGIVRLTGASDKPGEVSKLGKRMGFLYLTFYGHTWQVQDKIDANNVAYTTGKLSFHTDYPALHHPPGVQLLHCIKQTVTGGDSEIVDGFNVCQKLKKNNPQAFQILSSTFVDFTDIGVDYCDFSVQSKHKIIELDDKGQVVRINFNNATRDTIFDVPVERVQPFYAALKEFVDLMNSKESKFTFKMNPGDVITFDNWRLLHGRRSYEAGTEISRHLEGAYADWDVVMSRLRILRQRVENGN
# [6] = tested on: BBOX; conditions: read-out: KM of BBOX for 2OG; cited from earlier work
smiles,measurement,setting,value
O=C(N[C@@H](CSCc1ccccn1)C(=O)O)c1ncccc1O [AR692B],Cytotoxicity,[1],not cytotoxic
same,Reduction in carnitine levels,"[2]; HEK 293T cells, 100 μM",> 40%
same,Carnitine levels,"[2]; HEK 293T cells, 100 μM compound",57 ± 9 percentage of free carnitine l
same,Activity against the tested KDMs,[3],inactive
C[N+](C)(C)NCCC(=O)[O-] [Mildronate],Carnitine levels,"[2]; HEK 293T cells, 20 μM compound",70 ± 6 percentage of free carnitine l
same,Reduction of carnitine levels,"[2]; HEK 293T cells, 50 μM",63%
same,Carnitine levels,"[2]; HEK 293T cells, 50 μM compound",37 ±10 percentage of free carnitine l
same,Activity on carnitine levels,"[2]; HEK 293T cells, below 5 μM",not active
same,Reduction of carnitine levels,"[2]; cells, 20 μM",30%
same,IC50,[4],60 µM
"O=C(O)CNC(=O)c1ncccc1O [compound 1, (3-hydroxypicolinoyl)glycine]",Kd,[5],10.8 µM
"O=C(O)CCC(=O)C(=O)O [2OG, 2-oxoglutarate]",Km,[6],160 µM
"C[N+](C)(C)CCCC(=O)[O-] [GBB, γ-butyrobetaine]",Reduction of carnitine levels,"[2]; cells, 20 μM",~ 50%
